Test results as given in patent US20220264927A1, “ORAL DOSE COMPOSITIONS OF TRIBUTYRIN FOR THE GENERATION OF BUTYRATE IN THE GUT” (NutriScience Innovations LLC, priority 2021, published 2022).
Read-outs that look alike come from different tables or passages of the source.

Columns and labels:
[1] = test system: gut microbiota starter cultures (human feces from 6 volunteers); assay: ex vivo simulation of colon fermentation with human fecal starter cultures; butyrate generation by chromatography; format: cell-based; conditions: for Butyrate Generation: after 48 hours of fermentation
Description: In the first type of experiment, an ex-vivo model system is used. In this model system, an ex vivo simulation of the fermentation that occurs in the colon was used. Human feces from 6 volunteers were used as a gut microbiota starter cultures. The test materials were added to this system and butyrate generation was determined after 48 hours of fermentation, compared to controls for each set. Butyrate generation was measured using chromatography.
In this series of experiments the human equivalent dose (HED) was determined to be 1 gram/day of ingested prebiotic in-vivo corresponds to approximately 1 g/L in-vitro dose. Therefore a 10 mg/ml in-vitro dose is equivalent to 10 mg/day HED.

[2] = after ingestion, cited from earlier work
Caenorhabditis elegans = format: in vivo
Description: In the second type of experiment, an animal model system was used to study changes in the gut microbiome behavior. Caenorhabditis elegans (C. elegans), a nematode commonly used as an organism model, was used in the present study. Reduction of oxidative stress was determined in the C. elegans model. Butyrate has previously been shown in rodent and porcine studies to ameliorate oxidative stress in the intestine generated via hydrogen peroxide or Diquat dibromide exposure. Thus, an oxidative stress assay is a rapid indirect method of determining whether the tributyrin doses proposed in this study can produce beneficial butyrate in vivo.
Previous studies have shown that this concentration of Paraquat will kill adult C. elegans in liquid culture within 24 hours of exposure via the generation of superoxide anions that lead to oxidative damage of vital cellular components. The standard methods of growing the animals, treating with Paraquat, washing out the Paraquat, and observing survival at 12 hours post Paraquat treatment have been previously described. One group received only Paraquat as a positive control, while a second group received nothing as a negative control, and all others received the therapeutic treatments. […]
In the C. elegans series of studies, the human equivalent dose (HED) of tributyrin was determined in the following manner. A typical human stomach size of 250 ml was used as a baseline. […] Tributyrin is soluble in DMSO up to a maximum concentration of 100 mg/ml, which is equivalent to 330.73 mM. C. elegans can be exposed to a 1% solution of DMSO in aqueous standard nematode growth media without compromising its viability. […]

[3] = test system: mucosal damage in experimental colitis; conditions: DSS colitis, 5 g/kg diet, cited from earlier work
[4] = solubility of tributyrin in DMSO; format: physicochemical; conditions: organic solvent or mixture, equivalent of 100 mg/ml, read-out: maximum concentration soluble in DMSO
Description: In the C. elegans series of studies, the human equivalent dose (HED) of tributyrin was determined in the following manner. A typical human stomach size of 250 ml was used as a baseline. 100 mg per serving per day of tributyrin for a 60 Kg adult is equivalent to 400 μg/ml (˜1.32 mM). Tributyrin is soluble in DMSO up to a maximum concentration of 100 mg/ml, which is equivalent to 330.73 mM. C. elegans can be exposed to a 1% solution of DMSO in aqueous standard nematode growth media without compromising its viability. Doses between 10 mg HED [40 μg/ml (˜0.13 mM)], and 100 mg HED [400 μg/ml (˜1.32 mM)] were used.

[5] = cited from earlier work
[6] = test system: intestinal barrier and liver; conditions: ethanol-exposed mice, diet supplemented 5 mM, 10 days; cited from earlier work
[7] = Example 4, probiotic alone, test dose 5*10^7 CFU/mL, blank 2.78

Lacticaseibacillus rhamnosus GG [LGG]
Butyrate Generation [1, 7]: 3.15 mM

CCCC(=O)[O-].[Na+] [sodium butyrate, Sodium butyrate, reference compound]
peak time of butyrate in plasma [2]: 15 to 45 min

C[n+]1ccc(-c2cc[n+](C)cc2)cc1 [Paraquat, reference compound]
% Survival of Worms at 12 hours (Caenorhabditis elegans; Paraquat 250 nM alone (positive control), negative control 98.69): 67.63%

partially hydrolyzed guar gum [PHGG, reference compound]
% Survival of Worms at 12 hours (Caenorhabditis elegans; test dose 20 mg/mL (HED 5 g per day), no Paraquat): 96.24% | % Survival of Worms at 12 hours (Caenorhabditis elegans; test dose 20 mg/mL + Paraquat 250 nM (HED 5 g per day), Paraquat alone 67.63): 49.39% | % Survival of Worms at 12 hours (Caenorhabditis elegans; test dose 40 mg/mL (HED 10 g per day), no Paraquat): 96.27% | % Survival of Worms at 12 hours (Caenorhabditis elegans; test dose 40 mg/mL + Paraquat 250 nM (HED 10 g per day), Paraquat alone 67.63): 62.99%

CCCC(=O)OCC(COC(=O)CCC)OC(=O)CCC [Tributyrin, propane-1,2,3-triyl tributyrate]
mucosal architecture ([3]; versus non-supplemented mice): improved mucosal architecture | intestinal permeability [3]: reduced intestinal permeability | oxidative stress (hydroperoxide) [3]: lower level of hydroperoxide | solubility [4]: 331 mM | maximum concentration soluble in DMSO [5]: ≤ 100 mg/mL | oxidative stress (Caenorhabditis elegans; Example 3, tributyrin HED 10 and 100 mg/day, in words): significant reduction in oxidative stress | % Survival of Worms at 12 hours (Caenorhabditis elegans; test dose 40 ug/mL (HED 10 mg per day), no Paraquat): 97.24% | % Survival of Worms at 12 hours (Caenorhabditis elegans; test dose 40 ug/mL + Paraquat 250 nM (HED 10 mg per day), Paraquat alone 67.63): 68.86% | % Survival of Worms at 12 hours (Caenorhabditis elegans; test dose 400 ug/mL (HED 100 mg per day), no Paraquat): 99.23% | % Survival of Worms at 12 hours (Caenorhabditis elegans; test dose 400 ug/mL + Paraquat 250 nM (HED 100 mg per day), Paraquat alone 67.63): 73.63% | Butyrate Generation ([1]; Example 1, test dose 50 mg/L (HED 50 mg per day), blank 2.86): 3.22 mM | Butyrate Generation ([1]; Example 1, test dose 100 mg/L (HED 100 mg per day), blank 2.86): 3.73 mM | butyrate generation compared with inulin at HED 4 g/day ([1]; Example 1, tributyrin HED 50 to 100 mg/day, in words): about the same amount of butyrate | butyrate generation compared with XOS at HED 1 g/day ([1]; Example 2, tributyrin 100 mg/day HED, in words): equivalent butyrate generation | Butyrate Generation ([1]; Examples 2 and 4, test dose 100 mg/L (HED 100 mg per day), blank 2.78): 3.51 mM | peak time of butyrate in plasma ([2]; in words): on the order of hours | liver injury [6]: mitigated liver injury | tight-junction (TJ) protein staining in proximal colon and ileum [6]: maintained immunoreactive staining intensity of TJ proteins

Inulin [reference compound]
Butyrate Generation ([1]; Example 1, test dose 4 g/L (HED 4 g per day), blank 2.86): 3.62 mM

xylooligosaccharide [XOS, reference compound]
Butyrate Generation ([1]; Examples 2 and 4, test dose 1 g/L (HED 1 g per day), blank 2.78): 3.30 mM

Limosilactobacillus reuteri
Butyrate Generation [1, 7]: 2.72 mM
